One sequence from patent US20220275037A1, “ß-AMYLOID CYCLIC RIBONUCLEIC ACID, POLYPEPTIDE, AND APPLICATION THEREOF” (priority 2019, published 2022) can be followed below.

One data set concerns circAβ-a. Kind of data set: qRT-PCR of circAβ-a under ASO treatment. It counts as cell-based, human. To be noted: cells overexpressing circAβ-a, vs Scr. ASO. The text has this:
(§1) FIG. 7A. Schematic diagram of the designing of anti-circAβ-a-ASO. FIG. 7B. β-amyloid circular ribonucleic acid qRT-PCR results under ASO treatment; BE-Aβ represents the plasmid overexpressing circAβ-a using pCircRNA-BE vector; DMo-Aβ represents the overexpression using pCircRNA-DMo vector circAβ-a plasmid; Scr. ASO means negative control experiment ASO. FIG. 7C. qRT-PCR results of APP mRNA under ASO treatment.
(§2) In this example, the specific antisense oligonucleotide (ASO) against β-amyloid cyclic ribonucleic acid (circAβ) is used to inhibit and degrade circAβ to prevent and treat Alzheimer's disease. As shown in FIGS. 7A-7C, the level of the circular RNA in the cell is reduced by antisense oligonucleotides (anti-circAβ-a-ASO) against β-amyloid cyclic ribonucleic acid-a (circAβ-a). The APP mRNA was not affected (FIG. 7C). As shown in the figure, antisense oligonucleotides containing SEQ ID No. 41-57 anti-amyloid cyclic ribonucleic acid (circAβ). Antisense oligonucleotides recognize β-amyloid circular ribonucleic acid through base complementary pairing. Antisense oligonucleotides that bind target RNA can degrade target RNA by activating RNase H enzyme activity (FIGS. 7A-7C). Antisense oligonucleotides can also regulate (such as inhibit) protein translation by binding to target RNA.
Background: Real-time PCR tracks product formation cycle by cycle.

The subject of another data set is APP mRNA. Kind of data set: qRT-PCR of APP mRNA under ASO treatment. Format: cell-based, human.
Excerpt: as §1, §2

For “AAGCAGCTCATCTCCACCACAC (listed as DNA, chemistry not given here) [anti-circAβ-a-ASO, antisense oligonucleotide against circAβ-a]”, the “level of circAβ-a in cells” value in the data set on circAβ-a is listed as “reduced”. Further, the “APP mRNA level” value in the data set on APP mRNA is given as “not affected”.
